{"source": "ChEMBL document CHEMBL2169745", "about": "“Photoinduced DNA cleavage by anthracene based hydroxamic acids” (Bioorg Med Chem Lett, 2012)", "type_in_all_cases": "nucleic-acid assay", "key": {"[1]": {"system": "Nucleic Acid", "experiment": "Induction of DNA cleavage in Escherichia coli pBR322 DNA assessed as formation of relaxed circular DNA at 100 uM treated for 1 hr using ethidium bromide staining by agarose gel electrophoresis analysis in presence of UV light", "design": "scale not given: the % may be the effect or the level left"}, "[2]": {"system": "Nucleic Acid", "experiment": "Induction of DNA cleavage in Escherichia coli pBR322 DNA assessed as formation of relaxed circular DNA at 100 uM treated for 1 hr using ethidium bromide staining by agarose gel electrophoresis analysis in presence of UV light and 150 mM of NaN3", "design": "scale not given: the % may be the effect or the level left"}, "[3]": {"system": "Nucleic Acid", "experiment": "Induction of DNA cleavage in Escherichia coli pBR322 DNA assessed as formation of relaxed circular DNA at 100 uM treated for 1 hr using ethidium bromide staining by agarose gel electrophoresis analysis in presence of UV light and DMSO", "design": "scale not given: the % may be the effect or the level left"}, "[4]": {"system": "Nucleic Acid", "experiment": "Induction of DNA cleavage in Escherichia coli pBR322 DNA assessed as formation of relaxed circular DNA at 100 uM treated for 1 hr using ethidium bromide staining by agarose gel electrophoresis analysis in presence of UV light and 300 mM of NaN3", "design": "scale not given: the % may be the effect or the level left"}, "[5]": {"system": "Nucleic Acid", "experiment": "Induction of DNA cleavage in Escherichia coli pBR322 DNA assessed as formation of relaxed circular DNA at 100 uM treated for 1 hr using ethidium bromide staining by agarose gel electrophoresis analysis in presence of UV light and 20 mM of NaN3", "design": "scale not given: the % may be the effect or the level left"}, "[6]": {"system": "Nucleic Acid", "experiment": "Induction of DNA cleavage in Escherichia coli pBR322 DNA assessed as formation of relaxed circular DNA at 100 uM treated for 1 hr using ethidium bromide staining by agarose gel electrophoresis analysis in presence of UV light and 600 mM of NaN3", "design": "scale not given: the % may be the effect or the level left"}, "[7]": {"system": "Nucleic Acid", "experiment": "Induction of DNA cleavage in Escherichia coli pBR322 DNA assessed as formation of relaxed circular DNA at 100 uM treated for 1 hr using ethidium bromide staining by agarose gel electrophoresis analysis in presence of UV light and 75 mM of NaN3", "design": "scale not given: the % may be the effect or the level left"}, "[8]": {"system": "Nucleic Acid", "experiment": "Induction of DNA cleavage in Escherichia coli pBR322 DNA assessed as formation of relaxed circular DNA at 100 uM treated for 1 hr using ethidium bromide staining by agarose gel electrophoresis analysis in presence of bubbling with O2 gas", "design": "scale not given: the % may be the effect or the level left"}, "[9]": {"system": "Nucleic Acid", "experiment": "Induction of DNA cleavage in Escherichia coli pBR322 DNA assessed as formation of relaxed circular DNA at 10 uM treated for 1 hr using ethidium bromide staining by agarose gel electrophoresis analysis in presence of UV light", "design": "scale not given: the % may be the effect or the level left"}, "[10]": {"system": "Nucleic Acid", "experiment": "Induction of DNA cleavage in Escherichia coli pBR322 DNA assessed as formation of relaxed circular DNA at 100 uM treated for 1 hr using ethidium bromide staining by agarose gel electrophoresis analysis in presence of UV light and D2O", "design": "scale not given: the % may be the effect or the level left"}, "[11]": {"system": "Nucleic Acid", "experiment": "Induction of DNA cleavage in Escherichia coli pBR322 DNA assessed as formation of relaxed circular DNA treated for 1 hr using ethidium bromide staining by agarose gel electrophoresis analysis in presence of UV light"}, "[12]": {"system": "Nucleic Acid", "experiment": "Induction of DNA cleavage in Escherichia coli pBR322 DNA assessed as formation of relaxed circular DNA at 100 uM treated for 1 hr using ethidium bromide staining by agarose gel electrophoresis analysis in presence of UV light and ascorbic acid", "design": "scale not given: the % may be the effect or the level left"}, "[13]": {"system": "Nucleic Acid", "experiment": "Induction of DNA cleavage in Escherichia coli pBR322 DNA assessed as formation of relaxed circular DNA at 25 uM treated for 1 hr using ethidium bromide staining by agarose gel electrophoresis analysis in presence of UV light", "design": "scale not given: the % may be the effect or the level left"}, "[14]": {"system": "Nucleic Acid", "experiment": "Induction of DNA cleavage in Escherichia coli pBR322 DNA assessed as formation of relaxed circular DNA at 100 uM treated for 1 hr using ethidium bromide staining by agarose gel electrophoresis analysis in presence of UV light and 40 mM of NaN3", "design": "scale not given: the % may be the effect or the level left"}, "[15]": {"system": "Nucleic Acid", "experiment": "Induction of DNA cleavage in Escherichia coli pBR322 DNA assessed as formation of relaxed circular DNA at 50 uM treated for 1 hr using ethidium bromide staining by agarose gel electrophoresis analysis in presence of UV light", "design": "scale not given: the % may be the effect or the level left"}, "[16]": {"system": "Nucleic Acid", "experiment": "Induction of DNA cleavage in Escherichia coli pBR322 DNA assessed as formation of relaxed circular DNA at 40 uM treated for 1 hr using ethidium bromide staining by agarose gel electrophoresis analysis in presence of UV light", "design": "scale not given: the % may be the effect or the level left"}, "[17]": {"system": "Nucleic Acid", "experiment": "Induction of DNA cleavage in Escherichia coli pBR322 DNA assessed as formation of relaxed circular DNA at 100 uM treated for 1 hr using ethidium bromide staining by agarose gel electrophoresis analysis in presence of UV light and DABCO", "design": "scale not given: the % may be the effect or the level left"}, "[18]": {"system": "Nucleic Acid", "experiment": "Induction of DNA cleavage in Escherichia coli pBR322 DNA assessed as formation of relaxed circular DNA at 100 uM treated for 1 hr using ethidium bromide staining by agarose gel electrophoresis analysis in presence of bubbling with Ar gas", "design": "scale not given: the % may be the effect or the level left"}, "[19]": {"system": "Nucleic Acid", "experiment": "Induction of DNA cleavage in Escherichia coli pBR322 DNA assessed as formation of relaxed circular DNA at 75 uM treated for 1 hr using ethidium bromide staining by agarose gel electrophoresis analysis in presence of UV light", "design": "scale not given: the % may be the effect or the level left"}}, "data": [{"smiles": "O=C(NO)C(NCc1c2ccccc2cc2ccccc12)c1ccccc1", "note": "(stereo not drawn)", "values": [{"measurement": "Activity", "setting": "[1]", "value": 98, "unit": "%"}]}, {"smiles": "O=C(/C=C/c1c2ccccc2cc2ccccc12)NC(Cc1ccccc1)C(=O)O", "note": "(stereo not drawn)", "values": [{"measurement": "Activity", "setting": "[1]", "value": 35, "unit": "%"}]}, {"smiles": "O=C(/C=C/c1c2ccccc2cc2ccccc12)NC(Cc1c[nH]c2ccccc12)C(=O)NO", "note": "(stereo not drawn)", "values": [{"measurement": "Activity", "setting": "[1]", "value": 89, "unit": "%"}]}, {"smiles": "O=C(O)C(Cc1ccccc1)NCc1c2ccccc2cc2ccccc12", "note": "(stereo not drawn)", "values": [{"measurement": "Activity", "setting": "[1]", "value": 60, "unit": "%"}]}, {"smiles": "O=C(NO)C(Cc1ccccc1)NCc1cccc2ccccc12", "note": "(stereo not drawn)", "values": [{"measurement": "Activity", "setting": "[1]", "value": 16, "unit": "%"}]}, {"smiles": "O=C(/C=C/c1cccc2ccccc12)NC(Cc1ccccc1)C(=O)NO", "note": "(stereo not drawn)", "values": [{"measurement": "Activity", "setting": "[1]", "value": 15, "unit": "%"}]}, {"smiles": "O=C(NO)C(Cc1c[nH]c2ccccc12)NCc1c2ccccc2cc2ccccc12", "note": "(stereo not drawn)", "values": [{"measurement": "Activity", "setting": "[1]", "value": 91, "unit": "%"}]}, {"smiles": "O=C(NO)C(Cc1ccccc1)NCc1c2ccccc2cc2ccccc12", "note": "(stereo not drawn)", "values": [{"measurement": "Activity", "setting": "[2]", "value": 63, "unit": "%"}, {"measurement": "Activity", "setting": "[3]", "value": 54, "unit": "%"}, {"measurement": "Activity", "setting": "[4]", "value": 62, "unit": "%"}, {"measurement": "Activity", "setting": "[5]", "value": 97, "unit": "%"}, {"measurement": "Activity", "setting": "[6]", "value": 62, "unit": "%"}, {"measurement": "Activity", "setting": "[7]", "value": 77, "unit": "%"}, {"measurement": "Activity", "setting": "[8]", "value": 100, "unit": "%"}, {"measurement": "Activity", "setting": "[9]", "value": 2, "unit": "%"}, {"measurement": "Activity", "setting": "[10]", "value": 100, "unit": "%"}, {"measurement": "Activity", "setting": "[11]", "value": "Dose-dependent effect"}, {"measurement": "Activity", "setting": "[12]", "value": 37, "unit": "%"}, {"measurement": "Activity", "setting": "[13]", "value": 4, "unit": "%"}, {"measurement": "Activity", "setting": "[14]", "value": 86, "unit": "%"}, {"measurement": "Activity", "setting": "[15]", "value": 25, "unit": "%"}, {"measurement": "Activity", "setting": "[16]", "value": 10, "unit": "%"}, {"measurement": "Activity", "setting": "[1]", "value": 97, "unit": "%"}, {"measurement": "Activity", "setting": "[17]", "value": 74, "unit": "%"}, {"measurement": "Activity", "setting": "[18]", "value": 75, "unit": "%"}, {"measurement": "Activity", "setting": "[19]", "value": 67, "unit": "%"}]}, {"smiles": "O=C(/C=C/c1c2ccccc2cc2ccccc12)NC(Cc1ccccc1)C(=O)NO", "note": "(stereo not drawn)", "values": [{"measurement": "Activity", "setting": "[1]", "value": 98, "unit": "%"}]}, {"smiles": "O=C(/C=C/c1c2ccccc2cc2ccccc12)NC(C(=O)NO)c1ccccc1", "note": "(stereo not drawn)", "values": [{"measurement": "Activity", "setting": "[1]", "value": 99, "unit": "%"}]}]}
